Source: patent publication US8609719B2, “Propargylated aminoindans, processes for preparation, and uses thereof” (priority 2006, dated 2013)
Counter-ions that a name gives are not always drawn. Like-named read-outs stand apart in the source and are kept apart here.

Columns and labels:
MAO = MAO inhibition in rat organs after chronic administration, overall conclusion; type: in vivo; details: rats, P.O. daily for seven days
Protocol: 30 rats were separated randomly into 5 testing groups of 6 rats each. Group 1 was the control group to which no drug was administered. Ethyl-hydroxymethyl-carbamic acid 3-R-(prop-2-ynylamino)-indan-5-yl ester fumarate (2:1) was administered to groups 2, 3, 4 in dosages of 150, 75, and 37.5 μmol/kg respectively, daily, perorally (“P.O.”) for seven consecutive days. Water was used as a vehicle.
Rats were sacrificed, out of sight of the other rats, 2 hours after the last administration. Brains were removed into Petri dishes on ice, the cerebellums were […], and the brains cut into halves for analysis. Livers and intestines were removed for MAO determination. Organs were homogenated for enzyme inhibition analysis.
The MAO inhibition after administration of ethyl-hydroxymethyl-carbamic acid 3-R-(prop-2-ynylamino)-indan-5-yl ester fumarate (2:1) in various organs is listed in Table 4 calculated in percent relative to the control group.

MAO-B = target: T1, MAO-B (Rattus norvegicus, UniProt P19643); assay: Inhibition of MAO activity in vitro (PEA substrate); type: biochemical
T1 construct: from tissue; host or cells: brain, liver and intestine (duodenum) of dosed rats
T1 sequence (P19643 1-520): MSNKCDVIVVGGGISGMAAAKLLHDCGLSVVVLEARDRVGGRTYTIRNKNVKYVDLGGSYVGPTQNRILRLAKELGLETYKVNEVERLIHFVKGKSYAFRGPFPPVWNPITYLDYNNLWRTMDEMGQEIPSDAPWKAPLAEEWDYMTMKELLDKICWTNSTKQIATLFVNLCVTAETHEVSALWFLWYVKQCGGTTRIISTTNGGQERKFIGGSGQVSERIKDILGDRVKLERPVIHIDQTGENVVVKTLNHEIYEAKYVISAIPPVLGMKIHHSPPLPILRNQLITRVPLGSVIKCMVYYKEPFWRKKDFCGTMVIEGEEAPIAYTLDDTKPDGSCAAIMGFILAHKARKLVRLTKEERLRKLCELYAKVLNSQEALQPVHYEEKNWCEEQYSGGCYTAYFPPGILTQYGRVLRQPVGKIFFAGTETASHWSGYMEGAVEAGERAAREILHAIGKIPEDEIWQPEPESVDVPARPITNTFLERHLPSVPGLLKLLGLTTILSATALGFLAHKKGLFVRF
Protocol: The MAO enzyme source was a homogenate of rat brain in 0.3M sucrose. The homogenate was diluted appropriately, and pre-incubated with serial dilutions of test compounds—diluted in phosphate buffer containing clogyline when 2-phenylethylamine (PEA) is the substrate, and diluted in phosphate buffer containing selegiline when 5-hydroxytryptamine (5-HT) is the substrate—for 60 minutes at 37° C. 14C-Labeled substrates (PEA for MAO-B determination and 5-HT for MAO-A determination) were then added, and the incubation continued for a further 20 minutes (PEA) or 30 minutes (5-HT). Substrate concentrations used were 10 μM (PEA) and 100 uM (5-HT). Enzyme concentration was chosen so that not more than 10% of the substrate was metabolized during the course of the reaction. Deaminated products were extracted into toluene-ethyl acetate (1:1 v/v) containing 0.4% (w/v) 2,5-diphenyloxazole (ppo) prior to determination by liquid scintillation counting. Radioactivity in the eluate indicated the production of neutral and acidic metabolites formed as a result of MAO activity. Activity of MAO in the sample was expressed as a percentage of control activity in the absence of inhibitor after subtraction of appropriate blank values. The activity determined using PEA as substrate is referred to as MAO-B, and that determined using 5-HT as MAO-A.
Concentrations of each inhibitor producing 50% inhibition of substrate metabolism (IC50) were calculated from the inhibition curves, and are shown in Table 1.

Recombinant human AChE = target: T2, Recombinant human AChE (Homo sapiens, UniProt P22303); assay: Inhibition of acetylcholinesterase activity in vitro (Ellman, stopped time assay); type: biochemical; parameters: ki (bimolecular rate constant): unit not given here
T2 construct: purchased Sigma-Aldrich Israel C-1682
T2 sequence (P22303 32-614): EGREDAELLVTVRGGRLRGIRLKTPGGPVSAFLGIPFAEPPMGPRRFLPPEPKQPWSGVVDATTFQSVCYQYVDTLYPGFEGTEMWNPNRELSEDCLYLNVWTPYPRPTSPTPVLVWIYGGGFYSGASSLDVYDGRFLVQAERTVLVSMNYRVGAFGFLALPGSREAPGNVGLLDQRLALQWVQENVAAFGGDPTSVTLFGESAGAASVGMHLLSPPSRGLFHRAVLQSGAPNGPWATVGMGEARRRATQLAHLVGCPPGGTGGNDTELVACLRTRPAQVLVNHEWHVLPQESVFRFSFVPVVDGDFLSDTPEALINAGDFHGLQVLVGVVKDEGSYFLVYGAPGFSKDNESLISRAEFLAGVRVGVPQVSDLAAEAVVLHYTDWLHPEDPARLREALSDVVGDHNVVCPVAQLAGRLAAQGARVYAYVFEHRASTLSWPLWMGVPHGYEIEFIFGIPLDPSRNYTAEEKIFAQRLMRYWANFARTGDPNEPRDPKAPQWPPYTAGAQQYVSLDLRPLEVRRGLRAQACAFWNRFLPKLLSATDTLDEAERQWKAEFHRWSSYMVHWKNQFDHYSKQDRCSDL
Protocol: Recombinant human AChE (C-1682), acetylthiocholine iodide (AcTh, A5771), bovine serum albumin (BSA, A-2153), and 5,5′-dithiobis(2-nitrobenzoic acid) (DTNB, D8130) were obtained from Sigma-Aldrich Israel. […] AChE was dissolved in phosphate buffer pH 8.0 containing 0.01% sodium azide NaAz and 1 mM EDTA and diluted to give a concentration of 15 units/ml. This solution was divided into aliquots of 0.5 ml, which were stored at −70° C. until use.
The inhibitory activity against AChE was determined by the method of Ellmann et al. (Biochemical Pharmacology, 1961 (7) 88-95) using AcTh as a substrate. To characterize the carbamoylation step, a traditional stopped time assay was performed, in which AChE was incubated at 37° C. with a minimum of 5 different concentrations of inhibitor in the assay buffer, and aliquots were transferred to an ELISA multiscan microplate reader (Labsystems) at various times for the determination of residual AChE activity, with Ascent PC software. The rate of reaction was measured at 412λ at 37° C. in 0.2 ml wells containing AChE 0.023 units per ml, DTNB 0.4-0.5 mM, AcTh 0.50 or 1 mM and BSA (0.05%) in 50 mM phosphate buffer as described above. Measurements were made every 5 min for up to 5 hours.
The inhibition of AChE by carbamates involves the formation of a reversible complex (EOH•CX), followed by carbamoylation of the enzyme to form (EOC) and a leaving group (HX). The carbamoylated enzyme is then hydrolyzed by water to regenerate the free enzyme (EOH).
The formation of the reversible complex is represented by the equilibrium constant: KD. For the carbamoylation phase of the inhibition process the unimolecular rate constant is represented by kmax, and the bimolecular rate constant by ki.

Compound | organ selectivity of MAO inhibition, in words (MAO) | IC50 (MAO-B; rat brain homogenate, PEA 10 μM, 60 minutes pre-incubation at 37° C., read-out: IC50 for MAO-B inhibition) [µM] | inhibition of acetylcholinesterase, in words (Recombinant human AChE) | ki (bimolecular rate constant) (Recombinant human AChE; AChE, 37° C.) | kmax (unimolecular carbamoylation rate constant) (Recombinant human AChE; AChE, 37° C.) [min⁻¹] | Kd (Recombinant human AChE; AChE, 37° C., read-out: KD (equilibrium constant of reversible complex)) [µM] | IC50 (MAO-B) [µM]
C#CCN[C@@H]1CCc2ccc(OC(=O)N(CC)CO)cc21 [R-HCPAI, Ethyl-hydroxymethyl-carbamic acid 3-R-(prop-2-ynylamino)-indan-5-yl ester fumarate (2:1)] | brain-selective MAO inhibition | 599 | weak inhibitor | 0.106 ± 0.008 | 0.033 | 306 | 
C#CCN[C@@H]1CCc2ccc(OC(=O)NC)cc21 [R-MCPAI, Methyl-carbamic acid 3-R-(prop-2-ynylamino)-indan-5-yl ester hydrochloride] |  |  | potent inhibitors |  | 0.435 |  | 42
CNC(=O)Oc1ccc2c(c1)[C@H](N)CC2 [R-MCAI, Methyl-carbamic acid 3-R-amino-indan-5-yl ester hydrochloride] |  |  | potent inhibitors |  | 1.63 |  | > 1000
